{
  "source": "patent US20080318992A1",
  "about": "“METHOD OF USING A PKC INHIBITOR TO REVERSE PREFRONTAL CORTICAL DECLINES” (YALE UNIVERSITY, priority 2007, published 2008)",
  "key": {"[1]": {"tested_on": "rat medial prefrontal cortex", "conditions": "systemic administration and infusions directly to the rat medial prefrontal cortex via implanted cannula; cited from earlier work"}, "[2]": {"tested_on": "aged rhesus monkeys", "experiment": "Spatial delayed response task (working memory) in aged rhesus monkeys", "type": "in vivo, rhesus monkeys (Macaca mulatta)", "conditions": "for delayed response performance: 1 h prior to testing", "text": "Performance on this task is reliant upon the integrity of the dorsolateral prefrontal cortex (Goldman-Rakic, 1987) and is consistently impaired in aged rhesus monkey (Bartus, et al., 1978; Rapp and Amaral, 1989).\nThe present study used 13 aged female rhesus monkeys (Macaca mulatta) ranging in age from 18 to 35 years at the time of testing. Actual birthdates were not available for several of the wild-caught animals and ages were estimated based on health records, teeth, and known history; several had been in the Yale University colony for more than 15 years. Monkeys were individually housed and maintained on a diet of Purina monkey chow (St. Louis, Mo.) supplemented with fruit.\nAnimals were tested at the same time of day immediately prior to feeding. Highly palatable food rewards (e.g., peanuts, raisins, or chocolate chips) were utilized during testing to minimize the need for dietary regulation. Animals were tested twice a week with 3-4 days separating each test session (e.g., Monday and Thursday). Cognitive testing of monkeys occurred in a Wisconsin General Testing Apparatus (WGTA) situated in a sound-attenuating room. Background masking noise (60 dB, wideband) was used to minimize auditory distractions.\nThe monkeys were trained on the spatial delayed response task as described previously (Arnsten, A. F., et al., J. Neurosci. (1988) δ: 4287-4298). For the delayed response task, the animal watched as the experimenter baited one of several food-wells with a food reward. The number of food-wells varied from two to four wells, depending on the monkey's performance level and experience with the task. Care was taken by the experimenter to ensure that the animal attended the baiting procedure. After baiting, food-wells were covered with identical plaques, and an opaque screen was lowered between the animal and the food-wells for a specified delay. At the end of the delay, the screen was raised and the animal was allowed to choose. Reward was quasi-randomly distributed between the wells. Five delay lengths (referred to as delays A through E) were quasi-randomly distributed over 30 trials. The shortest of these delays was ˜2 s (the “0” s, A delay). The remaining delays were titrated for individual monkeys such that each monkey maintained a baseline performance of 60-73% correct. For example, the delays for one animal might be A=0, B=5, C=10, D=15, and E=20 s.\nData were analyzed by comparing performance following treatment using a one-way repeated-measures ANOVA. […] Values were represented as means±SEM. Linear relationships between treatment response at the optimal dose of CHEL and age of the monkey (years) were analyzed in 10 monkeys with known birthdates using Pearson's test. In all cases, an α level of 0.05 was considered statistically significant.\nAll animals received all treatments conditions, with at least 7 days between treatments. The order of treatment administration was quasi-randomized."}, "[3]": {"conditions": "systemic administration; cited from earlier work"}, "[4]": {"tested_on": "aged rats", "conditions": "for change in percent-correct from mean 2-day baseline: 45 min prior to testing, N=5 aged rats"}},
  "note": "Read-outs that look alike come from different tables or passages of the source.",
  "data": [
    {"compound": "COc1ccc2c(c[n+](C)c3c4cc5c(cc4ccc23)OCO5)c1OC", "note": "[CHEL, Chelerythrine]", "values": [
      {"measurement": "stress induced working memory impairments", "setting": "[1]", "result": "capable of reversing stress induced working memory impairments"},
      {"measurement": "performance of 3 oldest monkeys better than 3 youngest monkeys", "setting": "[2]; 0.3 μg/kg oral", "result": "> 20", "unit": "%"},
      {"measurement": "delayed response performance", "setting": "[2]; 0.3 μg/kg oral, N=13 aged monkeys, p=0.013 vs vehicle", "result": "74.5±2.6", "unit": "% correct"},
      {"measurement": "spatial working memory performance 4 hours after oral administration", "setting": "[2]; 0.3 ug/kg oral, 4 hrs after administration, p=0.012 compared to vehicle (FIG. 5)", "result": "improved performance"},
      {"measurement": "performance of the 3 oldest monkeys", "setting": "[2]; 0.3 μg/kg oral, 3 oldest monkeys, mean age 32.3 years", "result": "85.6±4.4", "unit": "% correct"},
      {"measurement": "performance of the 3 youngest aged monkeys", "setting": "[2]; 0.3 μg/kg oral, 3 youngest aged monkeys, mean age 20.7 years", "result": "65.0±4.8", "unit": "% correct"},
      {"measurement": "delayed response performance", "setting": "[2]; 3.0 μg/kg oral, N=13, p=0.151 vs vehicle", "result": "71.5±1.9", "unit": "% correct"},
      {"measurement": "delayed response performance", "setting": "[2]; 30.0 μg/kg oral, N=13, p=0.406 vs vehicle", "result": "66.1±1.8", "unit": "%"},
      {"measurement": "spatial working memory performance at best dose", "setting": "[2]; individual best dose for all monkeys, oral, 4 hours, p=0.001 (FIG. 5)", "result": "reliably improved performance"},
      {"measurement": "serious deficits at high doses", "setting": "[2]; oral, even at high doses (150 ug/kg), 4 hours (FIG. 5)", "result": "no serious deficits were found"},
      {"measurement": "working memory impairments following administration of cirazoline", "setting": "[3]", "result": "reverse working memory impairments"},
      {"measurement": "change in percent-correct from mean 2-day baseline", "setting": "[4]; 0.3 mg/kg subcutaneous, p=0.691 vs vehicle", "result": "8.6±5.4", "unit": "% improvement"},
      {"measurement": "change in percent-correct from mean 2-day baseline", "setting": "[4]; 1.0 mg/kg subcutaneous, p=0.047 vs vehicle", "result": "26±6.4", "unit": "% improvement"},
      {"measurement": "performance times (non-specific motor effects)", "setting": "[4]; 0.3 or 1.0 mg/kg subcutaneous, data not shown", "result": "performance times did not differ as a result of treatment"}
    ]}
  ]
}
